One data set relates to E. coli JM109 (DE3). Put plainly: Time-killing curve, E. coli. It counts as cell-based, Escherichia coli. The note with it: FIG. 8b; at MIC concentrations. As for the experimental part: (§1) The speed at which several of the cyclic peptides of the invention kill E. coli JM 109 (DE3), Enterococcus faecium SP 180 and S. aureus (MRSA) (ATCC No. 33591 and 33592) was further tested at room temperature and/or at 37° C. A lower temperature tends to enrich the bacterial cultures for mature bacteria because the bacteria are not growing quickly. […] The presence or absence of immature bacteria in the culture may influence the rate at which the bacteria are killed, because immature bacteria tend to be more susceptible to many forms of antibiotics.
In FIG. 8b, the log of the number of E. coli colony forming units (cfu) per ml of culture is plotted versus time treated with cyclo[KRKWLWLW] (closed triangles), cyclo[KQRWLWLW] (closed circles), cyclo[KHLWLW] (closed squares), and cyclo[KKWLW] (open squares) at MIC concentrations. […] Cyclic peptide cyclo[KHKLWLW] kills effectively all E. coli within about 90 minutes. Cyclic peptides cyclo[KRKWLWLW] and cyclo[KKWLW] kill effectively all of the E. coli within about 130 minutes. […] Nonetheless, these cyclic peptides kill both types of bacteria very quickly.

Data set [1] deals with S. aureus (MRSA) (ATCC No. 33591). Put plainly: Time-killing curve, S. aureus MRSA ATCC 33591. Type of data set: cell-based, Staphylococcus aureus. The note with it: FIG. 8a; at MIC concentrations. The protocol:
as §1
To generate the data shown in FIG. 8a, the log of the number of colony forming units (cfu) per ml of culture was determined as a function of time after treatment of S. aureus (MRSA) (ATCC No. 33591) with cyclo[KHLWLW] (closed circles), cyclo[KRKWLWLW] (closed triangles), and cyclo[KQRWLWLW] (open squares) at MIC concentrations. […] The reduction in cfu count was greater than 3 log units. Cyclic peptide cyclo[KHLWLW] killed effectively all S. aureus (MRSA) within about 60 minutes.

A further data set in a line: in vivo. The following applies: for bioavailability / Vd / clearance / half-life: Balb/C, mouse, plasma; for bioavailability: intraperitoneal, 100 mg/kg; for Vd / clearance / half-life: iv; for Kel elimination rate constant: Mouse, IV injection. As for the experimental part:
IV injection: Solution of peptide in 9% sucrose (1 mg/mL) was injected IV into the tail vein of Balb/C mice at a dose of 3.6 mg/kg. Then the blood was collected immediately from one group of mice (3 mice per group) by bleeding the tail, separately from each mouse (50-100 uL per mouse). Further collections of blood were done from other groups of mice at times 20, 40, 70, 90, 120, 180, and 260 min after injection. Plasma from each blood sample was separated immediately after collection by spinning down red blood cells over a period of 5 min at 4000 rev./min. The plasma was then diluted with an equal volume of saline and refrigerated until analysis.
IP injection: Solutions of peptide in 9% sucrose (8.1 mg/mL) were injected EP into Balb/C mice at a dose of 100 mg/kg. Blood was collected immediately from one group of mice (3 mice per group) by bleeding the tail, separately from each mouse (50-100 uL per mouse). Further collections of blood were done from other groups of mice at times 0.5, 1, 2, 4, 6, 10, 15 h after injection. Plasma from each blood sample was separated immediately after collection by spinning down red blood cells over a period of 5 min at 4000 rev./min. Plasma was then diluted with equal volume of saline and refrigerated until analysis.
Detection of cyclo[RRKWLWW]-HCl in plasma by HPLC: Diluted with saline plasma (50-100 uL) was added to an eluent A (0.1% HCl in 99% H2O/1% ACN (v/v)) (150-300 uL), vortexed, and partial precipitation was removed by centrifugation. The clear solution was injected into an HPLC and the peptide was detected at 280 nm, in the 8-10 min interval, using a gradient of eluent A (0.1% HCl in 99% H2O/1% ACN (v/v)) and eluent B (0.07% HCl in 10% H2O/90% ACN (v/v)) using a flow rate of 1.5 ml/min. The following gradient was used: 30 to 30% B (5 min), followed by 30 to 37% B (5 min), followed by 37 to 40% B (12.5 min).
IV injection: Solution of peptide in 9% sucrose (2 mg/mL) was injected IV into the tail vein of Balb/C mice at a dose of 5 mg/kg. Blood was then collected immediately from one group of mice (3 mice per group) by bleeding the tail, separately from each mouse (50-100 uL per mouse). Further collections of blood were done from other groups of mice at times 30, 60, 120, 230, and 300 min after injection. Plasma from each blood sample was separated immediately after collection by spinning down red blood cells over a period of 5 min at 4000 rev./min. Plasma was then diluted with an equal volume of saline and refrigerated until analysis.
IP injection: Solution of peptide in 9% sucrose (9.8 mg/mL) was injected IP into Balb/C mice at a dose of 100 mg/kg. Blood was then collected immediately from one group of mice (3 mice per group) by bleeding the tail, separately from each mouse (50-100 uL per mouse). Further collections of blood were done from other groups of mice at times 0.5, 1, 2, 4, 6, 10 h after injection. Plasma from each blood sample was separated immediately after collection by spinning down red blood cells over a period of 5 min at 4000 rev./min. Plasma was then diluted with an equal volume of saline and refrigerated until analysis.
Detection of c(KSKWLWW) HC in plasma by HPLC: Samples were diluted with saline plasma (50-100 uL), added to an equal volume of eluent A (0.1% TFA in 96.5% H2O/0.9% ACN/2.4% MeOH (v/v)), vortexed, and partial precipitation was removed by centrifugation. The clear solution was injected into HPLC and the peptide was detected at 280 nm, in the 18-20 min interval, using a gradient of eluent A (0.1% TFA in 96.5% H2O/0.9% ACN/2.4% MeOH (v/v)) and eluent B (0.05% TFA in 8% H2O/72% ACN/20% MeOH (v/v)) using a flow rate of 1.5 ml/min. The following gradient was used: 0 to 0% B (5 min), followed by 0 to 100% B (25 min).

Data set [2] relates to S. aureus (MRSA) (ATCC No. 33592). Description: Time-killing curve, S. aureus MRSA ATCC 33592. The note with it: about 4 μg/ml. Type of data set: cell-based, Staphylococcus aureus. As for the experimental part:
as §1
FIGS. 9 and 10 illustrate the time course for killing S. aureus (MRSA) (ATCC No. 33592) with varying concentrations of cyclo[KSKWLWLW] cyclic peptide (SEQ ID NO:12) at room temperature and at 37° C. […] This may be due to growth of a few survivors after the residual cyclic peptide within the culture has been exhausted because the amount of peptide employed in that assay was below the MIC value.

The conditions of data set [3]: trypsin, α-chymotrypsin, subtilisin, blood plasma; RP-HPLC over 24 h. As for the experimental part:
Cyclic peptides having SEQ ID NO:13, 18, 26, and 29 were assayed for proteolytic susceptibility.

SMILES strings stand for the structures. Non-standard residues stand in square brackets, D forms with d. Residues, ends and D or L forms follow the SMILES beside them. Some results are limits rather than exact numbers.

The values below come from patent US20050107289A1, “Anti-microbial peptides and compositions” (priority 2001, published 2005).

As for `CC(C)C[C@H]1NC(=O)[C@H](Cc2c[nH]c3ccccc23)NC(=O)[C@@H](CCCNC(=N)N)NC(=O)[C@H](CCC(N)=O)NC(=O)[C@@H](CCCCN)NC(=O)[C@H](Cc2c[nH]c3ccccc23)NC(=O)[C@@H](CC(C)C)NC(=O)[C@H](Cc2c[nH]c3ccccc23)NC1=O` [SEQ ID NO:8, cyclo-(D-Lys-Gln-D-Arg-Trp-D-Leu-Trp-D-Leu-Trp)] (cyclo([dK]Q[dR]W[dL]W[dL]W)), the “time to kill effectively all E. coli” value in the data set with E. coli JM109 (DE3) was “within about thirty minutes”. Further, in data set [1], the “time to kill effectively all S. aureus (MRSA)” value is on record as “within about five minutes”.

In the case of `CC(C)C[C@H]1NC(=O)[C@H](Cc2c[nH]c3ccccc23)NC(=O)[C@@H](CCCCN)NC(=O)[C@H](CO)NC(=O)[C@@H](CCCCN)NC(=O)[C@H](Cc2c[nH]c3ccccc23)NC(=O)[C@@H](CC(C)C)NC(=O)[C@H](Cc2c[nH]c3ccccc23)NC1=O` [SEQ ID NO:12, D-Lys-Ser-D-Lys-Trp-D-Leu-Trp-D-Leu-Trp] (cyclo([dK]S[dK]W[dL]W[dL]W)), in “in vivo”, the bioavailability – broadly, the share of a dose that reaches the circulation, judged against a reference dose that is usually intravenous – was 32%; the distribution volume (Vd) (as a rule, a proportionality between amount in the body and measured concentration, not a real space) was found to be 0.67 L/kg; the clearance (as a rule, a measure of how efficiently the substance is removed, as volume per time) turned out to be 0.3 mL/min; the half-life – broadly, the time in which the quantity being followed falls by half – is 0.83 h. Further, the “Kel elimination rate constant” value in “in vivo” is 0.84 h⁻¹. Moreover, in data set [2] (37° C.), the “rebound of bacterial population” value is given as “rebounds by about six hours” and the “time to kill effectively all bacteria” value was “within about one hour”. In addition, in data set [2] (room temperature), the “rebound of bacterial population” value is recorded as “no rebound is observed” and the “time to kill all S. aureus (MRSA)” value is at most 2 h.

In the data set “in vivo”, `CC(C)C[C@H]1NC(=O)[C@H](Cc2c[nH]c3ccccc23)NC(=O)[C@@H](CCCCN)NC(=O)[C@H](CCCNC(=N)N)NC(=O)[C@@H](CCCNC(=N)N)NC(=O)[C@H](Cc2c[nH]c3ccccc23)NC(=O)[C@@H](CC(C)C)NC(=O)[C@H](Cc2c[nH]c3ccccc23)NC1=O` [SEQ ID NO:18, cyclo-(D-Arg-Arg-D-Lys-Trp-D-Leu-Trp-D-Leu-Trp)] (cyclo([dR]R[dK]W[dL]W[dL]W)) gave a bioavailability of 9%, a volume of distribution (Vd) of 0.58 L/kg, a clearance of 0.16 mL/min and a half-life of 1.2 h. Further, in the data set “in vivo”, the “Kel elimination rate constant” value came out at 0.6 h⁻¹. Besides, the proteolytic stability result in data set [3] was “stable”. Also, in data set [2] (37° C.), the “rebound of bacterial population” value is listed as “rebounds by about eight hours” and the “time to kill effectively all bacteria” value is listed as “within about one hour”. For the same compound, in data set [2] (room temperature), the “rebound of bacterial population” value was “no rebound is observed” and the “time to kill all S. aureus (MRSA)” value was at most 1 h.
